Experiments:
[1] = test system: 293T-ASXL1-Y591* mutant cells vs 293T-ASXL1-WT cells; assay: Cell viability (cell counting) of 293T-ASXL1-WT and 293T-ASXL1-Y591* mutant cells, 72 hours; format: cell-based, human; details: cell counting assay
Protocol: FIG. 11. Analog for compound #7152836 A) Structure of 16 analogs for compound #7152836. B) Dose-dependent inhibition of BAP1 activity the analogs in (A) in Ub-AMC assay. C) 293T-ASXL1-WT, 293T-ASXL1-Y591* mutant cells were treated with different concentrations of Doxorubicin, HSP90 inhibitor PU-H71, UCHLS inhibitor b-AP1 and iBAP for 72 hours. The cell viability was determined by cell counting assay.
Since the truncated ASXL1 functions as co-activator of BAP1 in human leukemic cells, and based on previous studies, mutations in ASXL1 lead to the hyper-activation of BAP1 in mice (16), we sought to identify small molecule inhibitors that inhibit BAP1 catalytic activity. Although crucial catalytic residues in BAP1 have been identified through general homology with other deubiquitinases, a detailed atomic resolution structure of BAP1 has yet to be determined. Therefore, because a structure-based approach is currently unattainable, we adopted a structure-agnostic unbiased biochemical screen for small molecule inhibitors of BAP1′s deubiquitinase activity. Toward this goal, we employed an Ubiquitin- 7-amino-4-methylcoumarin (Ub-AMC) screening platform. […] Upon incubation with a protease recognizing Ubiquitin, such as BAP1, AMC is released and the increase in fluorescence can be measured (7, 17) (FIG. 4A). […]

recombinant BAP1 = target: T1, recombinant BAP1 (Homo sapiens, UniProt Q92560); assay: Ub-AMC assay of BAP1 deubiquitinase activity; format: biochemical; details: 100 nM Ub-AMC, 0.1 nM recombinant BAP1
T1 construct: made in house; host or cells: bacteria
T1 sequence (Q92560 1-729): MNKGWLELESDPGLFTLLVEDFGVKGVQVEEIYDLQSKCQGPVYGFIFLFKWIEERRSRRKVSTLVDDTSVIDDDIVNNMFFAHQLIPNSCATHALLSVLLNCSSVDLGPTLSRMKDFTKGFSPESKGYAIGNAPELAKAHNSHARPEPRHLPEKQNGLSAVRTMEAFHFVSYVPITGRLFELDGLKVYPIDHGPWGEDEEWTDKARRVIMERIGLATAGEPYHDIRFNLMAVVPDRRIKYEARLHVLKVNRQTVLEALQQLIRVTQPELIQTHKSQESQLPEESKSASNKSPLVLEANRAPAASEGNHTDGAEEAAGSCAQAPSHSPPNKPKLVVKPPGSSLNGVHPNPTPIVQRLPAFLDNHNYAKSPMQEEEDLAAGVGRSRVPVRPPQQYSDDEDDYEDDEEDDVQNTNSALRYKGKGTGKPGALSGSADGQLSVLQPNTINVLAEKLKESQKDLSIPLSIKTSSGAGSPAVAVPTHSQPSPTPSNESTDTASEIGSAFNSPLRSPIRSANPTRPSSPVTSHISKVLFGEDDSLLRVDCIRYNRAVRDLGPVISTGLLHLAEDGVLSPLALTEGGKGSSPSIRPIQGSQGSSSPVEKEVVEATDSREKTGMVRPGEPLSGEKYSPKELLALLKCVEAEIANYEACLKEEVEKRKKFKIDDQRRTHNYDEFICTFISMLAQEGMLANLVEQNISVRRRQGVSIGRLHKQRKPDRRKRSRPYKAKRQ
Text: Since the truncated ASXL1 functions as co-activator of BAP1 in human leukemic cells, and based on previous studies, mutations in ASXL1 lead to the hyper-activation of BAP1 in mice (16), we sought to identify small molecule inhibitors that inhibit BAP1 catalytic activity. Although crucial catalytic residues in BAP1 have been identified through general homology with other deubiquitinases, a detailed atomic resolution structure of BAP1 has yet to be determined. Therefore, because a structure-based approach is currently unattainable, we adopted a structure-agnostic unbiased biochemical screen for small molecule inhibitors of BAP1′s deubiquitinase activity. Toward this goal, we employed an Ubiquitin- 7-amino-4-methylcoumarin (Ub-AMC) screening platform. Ubiquitin-AMC (Ub-AMC) is a fluorogenic substrate for ubiquitin hydrolases based on the C-terminus derivatization of ubiquitin with 7-amido-4-methylcoumarin (AMC). Upon incubation with a protease recognizing Ubiquitin, such as BAP1, AMC is released and the increase in fluorescence can be measured (7, 17) (FIG. 4A). We optimized the screening condition and finally used 100 nM Ub-AMC and 0.1 nM recombinant BAP1 (FIG. 10A) for the reaction (FIG. 10B). The top 1% hits from 3,000 of 8-compound mixtures were subjected for a secondary validation (FIG. 10C, D). […]

Compound	difference of cell viability between ASXL1 wild type and mutant cells [1]	inhibition of BAP1 catalytic activity in vitro (recombinant BAP1)
C=CC(=O)N1C/C(=C\c2ccc([N+](=O)[O-])cc2)C(=O)/C(=C/c2ccc([N+](=O)[O-])cc2)C1 [UCHLS inhibitor]	did not observe any significant difference	–
COc1ccccc1C(=O)NC(=S)Nc1ccc2oc(-c3cc(F)c(F)cc3Cl)nc2c1 [#7231120]	–	could efficiently inhibit BAP1 catalytic activity

Reference: US11672794B2, “Therapeutic targeting of the BAP1 complex in cancer” (NORTHWESTERN UNIVERSITY, priority 2019, dated 2023)
